Read-outs that look alike come from different tables or passages of the source.
Tests used:
[1] = target: GDP-bound BRAS protein (aa 1-169), containing both G12C and C118A amino acid substitutions (Homo sapiens, UniProt P01116, C118A/G12C); experiment: Coupled Nucleotide Exchange Assay (SOS-mediated nucleotide exchange, AlphaScreen); format: biochemical; conditions: 2 hours compound pre-incubation
How it was run: (§1)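 AlphaScreen signal after SOS (aa 564-1049)/GTP-driven exchange (1 h) on GDP-loaded His-[…] G12C/C118A (aa 1-169), following a 2 h compound pre-incubation in HEPES pH 7.4 buffer with 10 mM MgCl2 and 0.01% Triton X-100. IC50s fitted by 4-parameter logistic model.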

[2] = target: GDP-bound protein (aa 1-169), containing both G12C and C118A amino acid substitutions (Homo sapiens, UniProt P01116, C118A/G12C); experiment: as above; format: biochemical; conditions: 2 hours compound pre-incubation
How it was run: as §1

[3] = system: Phosphorylation of ERK½ in MIA PaCa-2 cells; experiment: Phospho-ERK½ MSD Assay in MIA PaCa-2 cells; format: cell-based; conditions: 4 hours compound treatment, 10 ng/mL EGF for 10 min, read-out: p-ERK IC50 (MIA PaCa-2)
How it was run: (§2)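 MIA PaCa-2 or A549 cells (25,000/well, RPMI with 10% FBS) exposed to compound titration for 4 h at 37 °C, then stimulated with 10 ng/mL EGF for 10 min and lysed in RIPA. Phospho-ERK1/2 quantified by MSD whole-cell lysate immunoassay; IC50 from 4-parameter logistic fit.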

[4] = system: Phosphorylation of ERK½ in A549 cells; experiment: Phospho-ERK½ MSD Assay in A549 cells; format: cell-based; conditions: 4 hours compound treatment, 10 ng/mL EGF for 10 min, read-out: p-ERK IC50 (A549)
How it was run: as §2

[5] = Homo sapiens, MIA PaCa-2, MIA PaCa-2 cells

GDP-bound protein (aa 1-169), containing both G12C and C118A amino acid substitutions, sequence (P01116 1-169 isoform P01116-2 G12C/C118A): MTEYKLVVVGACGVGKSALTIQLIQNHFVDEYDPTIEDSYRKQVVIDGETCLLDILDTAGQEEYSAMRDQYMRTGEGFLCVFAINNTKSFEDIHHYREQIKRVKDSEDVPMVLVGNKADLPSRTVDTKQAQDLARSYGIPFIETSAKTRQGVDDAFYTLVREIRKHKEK
GDP-bound BRAS protein (aa 1-169), containing both G12C and C118A amino acid substitutions, sequence (P01116 1-169 isoform P01116-2 G12C/C118A): as above

SMILES	IC50 [1] [µM]	Coupled exchange IC50 [2] [µM]	IC50 [3, 5] [µM]	IC50 ([4]; Homo sapiens, A549, A549 cells) [µM]	IC50 ([3]; MIA PaCa-2 cells) [µM]	IC50 ([4]; A549 cells) [µM]
C=CC(=O)N1CCN(c2nc(=O)n(-c3ccccc3C(C)C)c3cc(-c4c(O)cccc4F)c(Cl)cc23)[C@@H](C)C1 [Example 8-3, 6-chloro-7-(2-fluoro-6-hydroxyphenyl)-4-((2S)-2-methyl-4-(2-propenoyl)-1-piperazinyl)-1-(2-(2-propartyl)phenyl)-2(1H)-quinazolinone]		0.783	0.061	> 100		
C=CC(=O)N1CCN(c2nnc(Oc3ccccc3)c3cc(-c4c(O)cccc4F)c(Cl)cc23)CC1 [Example 16, 1-(4-(7-Chloro-6-(2-fluoro-6-hydroxyphenyl)-4-phenoxy-1-phthalazinyl)-1-piperazinyl)-2-propen-1-one]		2.93	8.62	33.3		
C=CC(=O)N1CCN(c2nnc(Cc3ccccc3)c3cc(-c4c(O)cccc4F)c(Cl)cc23)CC1 [Example 35, 2-(1-(4-acryloyl-1-piperazinyl)-4-benzyl-7-chloro-6-phthalazinyl)-3-fluorophenol]		8.01	79.7	> 100		
C=CC(=O)N1CCN(c2snc3c(F)c(-c4cc(O)cc5ccccc45)c(Cl)cc23)[C@@H](C)C1 (single isomer, unassigned) [Example 1-19-1]		0.115	0.368	> 100		
C=CC(=O)N1CCN(c2nnc(-c3ccccc3CC)c3cc(-c4c(O)cccc4F)c(Cl)cc23)CC1 [Example 10-5, 1-(4-(7-chloro-4-(2-ethylphenyl)-6-(2-fluoro-6-hydroxyphenyl)-1-phthalazinyl)-1-piperazinyl)-2-propen-1-one]		0.297	3.41	> 100		
C=CC(=O)N1CCN(c2snc3c(F)c(-c4cc(O)cc5ccccc45)c(Cl)cc23)CC1 (single isomer, unassigned) [Example 3-1-1, 1-(4-(5-chloro-7-fluoro-6-(3-hydroxy-1-naphthalenyl)-2,1-benzothiazol-3-yl)-1-piperazinyl)-2-propen-1-one]		3.00			> 100	> 100
C=CC(=O)N1CCN(c2snc3c(F)c(-c4cc(O)cc5ccccc45)c(Cl)cc23)[C@H](C)C1 [Example 1-21, 1-((3R)-4-(5-chloro-7-fluoro-6-(3-hydroxy-1-naphthalenyl)-2,1-benzothiazol-3-yl)-3-methyl-1-piperazinyl)-2-propen-1-one]		1.30	4.89	> 100		
C=CC(=O)N1CCN(c2snc3c(F)c(-c4c(O)ccc5ccccc45)c(Cl)cc23)CC1 [Example 1-14, 1-(4-(5-chloro-7-fluoro-6-(2-hydroxy-1-naphthalenyl)-2,1-benzothiazol-3-yl)-1-piperazinyl)-2-propen-1-one]		1.78	5.03	> 100		
C=CC(=O)N1CCN(c2snc3c(F)c(-c4cc(O)cc5ccccc45)c(Cl)cc23)[C@H](CC)C1 (racemic) [Example 1-8]		0.894	6.07	> 100		
C=CC(=O)N1CCN(c2snc3nc(-c4cc(O)cc5ccccc45)c(Cl)cc23)C(C)C1 (single isomer, unassigned) [Example 2-5-2, 1-((3R)-4-(5-chloro-6-(3-hydroxy-1-naphthalenyl) [1,2]thiazolo[3,4-b]pyridin-3-yl)-3-methyl-1-piperazinyl)-2-propen-1-one or 1-((3S)-4-(5-ch1oro-6-(3-hydroxy-1-naphthalenyl) [1,2]thiazolo[3,4-b]pyridin-3-yl)-3-methyl-1-piperazinyl)-2-propen-1-one]		1.35			7.48	3.7
C=CC(=O)N1CCN(c2nc(=O)n(-c3ccccc3C(C)C)c3nc(-c4c(O)cccc4F)c(Cl)cc23)[C@@H](C)C1 (single isomer, unassigned) [Example 8-6-1]		0.066			0.01	> 33.3
C=CC(=O)N1CCN(c2snc3nc(-c4cc(O)cc5ccccc45)c(Cl)cc23)C(C)C1 (racemic) [Example 2-5, 1-(4-(5-chloro-6-(3-hydroxy-1-naphthalenyl)[1,2]thiazolo[3,4-b]pyridin-3-yl)-3-methyl-1-piperazinyl)-2-propen-1-one]		0.684	5.46	3.7		

Second part, the molecule after the results:

IC50 [1] [µM]	Coupled exchange IC50 [2] [µM]	IC50 [3, 5] [µM]	IC50 ([4]; Homo sapiens, A549, A549 cells) [µM]	IC50 ([3]; MIA PaCa-2 cells) [µM]	IC50 ([4]; A549 cells) [µM]	SMILES
0.289						C=CC(=O)N1CCN(c2nc(=O)n(-c3ccccc3C(C)C)c3cc(Br)c(Cl)cc23)[C@@H](C)C1 [Example 9-2, 7-bromo-6-chloro-4-((2S)-2-methyl-4-(2-propenoyl)-1-piperazinyl)-1-(2-(2-propanyl)phenyl)-2(1H)-quinazolinone]
	0.155	0.052	57.4			C=CC(=O)N1CCN(c2nc(=O)n(-c3ccccc3C(C)C)c3cc(-c4cc(O)cc(Cl)c4Cl)c(Cl)cc23)[C@@H](C)C1 [Example 9-1, 6-Chloro-7-(2,3-dichloro-5-hydroxyphenyl)-4-((2S)-2-methyl-4-(2-propenoyl)-1-piperazinyl)-1-(2-(2-propanyl)phenyl)-2(1H)-quinazolinone]
	1.05	11.8	> 100			C=CC(=O)N1CCN(c2snc3c(F)c(-c4c(O)cccc4F)c(Cl)cc23)CC1 [Example 3-6, 1-(4-(5-chloro-7-fluoro-6-(2-fluoro-6-hydroxyphenyl)-2,1-benzothiazol-3-yl)-1-piperazinyl)-2-propen-1-one]
	0.299	0.43	> 100			C=CC(=O)N1CCN(c2snc3c(F)c(-c4cc(O)cc5ccccc45)c(Cl)cc23)[C@@H](C(F)F)C1 (racemic) [Example 7-1]
	0.129	0.344	> 100			C=CC(=O)N1CCN(c2nc(=O)n([C@H]3CCCCC3(C)C)c3nc(-c4c(O)cccc4F)c(Cl)cc23)CC1 (racemic) [Example 9-14, 6-chloro-1-((1R)-2,2-dimethylcyclohexyl)-7-(2-fluoro-6-hydroxyphenyl)-4-(4-(2-propenoyl)-1-piperazinyl)pyrido[2,3-d]pyrimidin-2(1H)-one|6-chloro-1-((1S)-2,2-dimethylcyclohexyl)-7-(2-fluoro-6-hydroxyphenyl)-4-(4-(2-propenoyl)-1-piperazinyl)pyrido[2,3-d]pyrimidin-2(1H)-one]
	2.60	21.3	> 100			C=CC(=O)N1CCN(c2snc3c(F)c(-c4cc(O)cc(F)c4F)c(Cl)cc23)CC1 [Example 3-16, 1-(4-(5-chloro-6-(2,3-difluoro-5-hydroxyphenyl)-7-fluoro-2,1-benzothiazol-3-yl)-1-piperazinyl)-2-propen-1-one]
	0.457	3.06	11.1			C=CC(=O)N1CCN(c2snc3c(F)c(-c4cc(O)ccc4Cl)c(Cl)cc23)CC1 [Example 3-11, 1-(4-(5-chloro-6-(2-chloro-5-hydroxyphenyl)-7-fluoro-2,1-benzothiazol-3-yl)-1-piperazinyl)-2-propen-1-one]
	2.99	9.65	> 100			C=CC(=O)N1CCN(c2snc3c(F)c(-c4cc(N)c(Cl)cc4Cl)c(Cl)cc23)CC1 [Example 3-20, 1-(4-(6-(5-amino-2,4-dichlorophenyl)-5-chloro-7-fluoro-2,1-benzothiazol-3-yl)-1-piperazinyl)-2-propen-l-one]

— patent publication US11285135B2 (AMGEN INC., priority 2016, dated 2022)
